Measurements from ChEMBL document CHEMBL1649161, “Pharmacokinetics of EDP-420 after ascending single oral doses in healthy adult volunteers” (Antimicrob Agents Chemother, 2009).

Key:
Assay type in all cases: ADME, organism-based
[1] = Terminal half life in healthy human at 500 mg, po administered as single dose; details: in vivo
[2] = AUC (0 to infinity) in healthy human at 500 mg, po administered as single dose; design: dose 500 mg, route oral, time infinity; details: plasma
[3] = Cmax in healthy human at 400 mg, po administered as single dose; design: dose 400 mg, route oral; details: in vivo
[4] = AUC (0 to infinity) in healthy human at 400 mg, po administered as single dose; design: dose 400 mg, time infinity, route oral; details: plasma
[5] = Half life in healthy human at 400 mg, po administered as single dose; details: in vivo
[6] = Cmax in healthy human at 500 mg, po administered as single dose; design: dose 500 mg, route oral; details: in vivo
[7] = Distribution half life in healthy human at 400 mg, po administered as single dose; details: in vivo
[8] = Terminal half life in healthy human at 400 mg, po administered as single dose; details: in vivo

AUC(0-inf) [2] [ng·h/mL]	Cmax [3] [ng/mL]	AUC(0-inf) [4] [ng·h/mL]	Structure (SMILES)	further results
3390			CC[C@H]1OC(=O)[C@H](C)[C@@H](O[C@H]2C[C@@](C)(OC)[C@@H](O)[C@H](C)O2)[C@H](C)[C@@H](O[C@@H]2O[C@H](C)C[C@H](N(C)C)[C@H]2O)[C@](C)(O)C[C@@H](C)CN(C)[C@H](C)[C@@H](O)[C@]1(C)O [AZITHROMYCIN]	half-life [1]: 35 h
	780	7520	CC[C@H]1OC(=O)[C@H](C)[C@@H](O[C@H]2C[C@@](C)(OC)[C@@H](O)[C@H](C)O2)[C@H](C)[C@@H](O[C@@H]2O[C@H](C)C[C@H](N(C)C)[C@H]2O)[C@](C)(OC)C[C@@H](C)C(=O)[C@H](C)[C@@H](O)[C@]1(C)O [CLARITHROMYCIN]	half-life [5]: 3.89 h
7700			CC[C@H]1OC(=O)[C@H](C)[C@@H](O[C@H]2C[C@@](C)(OC)[C@@H](O)[C@H](C)O2)[C@H](C)[C@@H](O[C@@H]2O[C@H](C)C[C@H](N(C)C)[C@H]2O)[C@](C)(O)C[C@@H](C)C(=O)[C@H](C)[C@@H](O)[C@]1(C)O [ERYTHROMYCIN]	Cmax [6]: 2000 ng/mL
	800	3090	CC[C@H]1OC(=O)[C@H](C)C(=O)[C@H](C)[C@@H](O[C@@H]2O[C@H](C)C[C@H](N(C)C)[C@H]2O)[C@](C)(OC)C[C@@H](C)C(=O)[C@H](C)[C@H]2N(CCCCn3cnc(-c4cccnc4)c3)C(=O)O[C@]12C [TELITHROMYCIN]	half-life [7]: 2.13 h; half-life [8]: 6.68 h
